This note sets out measurements from patent publication US12029739B2, “SHP2 inhibitor and use thereof” (KANAPH THERAPEUTICS INC., priority 2021, dated 2024).

One assay concerns the target T1, SHP2 (full length) (Homo sapiens, UniProt Q06124).
T1 construct: SHP2 (full length, diluted to 100 pM final concentration in reaction buffer, BPS bioscience, US); purchased BPS bioscience, US
T1 sequence (Q06124 1-593): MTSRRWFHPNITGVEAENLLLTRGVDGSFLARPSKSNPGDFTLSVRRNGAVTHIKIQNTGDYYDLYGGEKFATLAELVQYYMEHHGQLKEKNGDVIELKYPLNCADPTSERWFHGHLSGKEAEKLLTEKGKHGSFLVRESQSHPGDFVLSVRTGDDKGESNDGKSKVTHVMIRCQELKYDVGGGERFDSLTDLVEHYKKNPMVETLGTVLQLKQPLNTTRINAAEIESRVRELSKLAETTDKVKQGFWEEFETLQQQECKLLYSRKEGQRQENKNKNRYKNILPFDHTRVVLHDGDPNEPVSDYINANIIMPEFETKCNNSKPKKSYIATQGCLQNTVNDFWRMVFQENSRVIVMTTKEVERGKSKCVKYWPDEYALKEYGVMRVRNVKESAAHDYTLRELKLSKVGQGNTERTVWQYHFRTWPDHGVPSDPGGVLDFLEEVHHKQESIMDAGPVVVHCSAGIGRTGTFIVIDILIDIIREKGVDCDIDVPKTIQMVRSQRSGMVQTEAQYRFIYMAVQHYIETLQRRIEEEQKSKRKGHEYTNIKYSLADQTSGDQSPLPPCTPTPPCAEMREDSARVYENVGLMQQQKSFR
The assay is described as follows: Phosphatase assay (PTPase assay) with DiFMUP substrate. It counts as biochemical. The settings on record: SHP2 activated with SHP2 activating peptide; DiFMUP 80 μM, 2 hours; fluorescence; read-out: IC50 (PTPase aS say).

In assay [1] the test system is phospho-ERK in MIA PaCa2 or H358 cells. In words: Phospho-ERK assay (AlphaLisa). It counts as cell-based. The settings on record: 1.5 h, MIA PaCa2 or H358 cells, compound incubated 1.5 hours; read-out: IC50 (p-ERK).

Consider `COCCn1cnc2ccc(Sc3ncc(N4CCC5(CC4)CO[C@@H](C)[C@H]5N)nc3N)c(Cl)c2c1=O` [Example 143, 6-((3-amino-5-((3S,4S)-4-amino-3-methyl-2-oxa-8-azaspiro[4.5]decan 8-yl)pyrazin-2-yl)thio)-5-chloro-3-(2-methoxyethyl)quinazolin-4(3H)-one], for which the IC50 (in general, the concentration that inhibits the measured activity by half) at SHP2 (full length) is less than 3 nM; in assay [1], less than 45 nM.

As to `COCCn1cnc2ccc(Sc3cnc(N4CCC5(CC4)Cc4ncsc4[C@H]5N)cn3)c(Cl)c2c1=O` [Example 144, 6-[5-[(6S)-6-aminospiro[4,6-dihydrocyclopenta[d]thiazole-5,4′-piperidin]-1′-yl]pyrazin-2-yl]sulfanyl-5-chloro-3-(2-methoxyethyl)quinazolin-4-one], the IC50 on SHP2 (full length) was less than 3 nM; in assay [1] it was less than 45 nM.

In the case of `CC(C)(O)Cn1cnc2ccc(Sc3cnc(N4CCC5(CC4)Cc4ncsc4[C@@H]5N)cn3)c(Cl)c2c1=O` [Example 146], the results for the IC50 (on SHP2 (full length); in assay [1]) were 3 to 100 nM and 45 to 1500 nM, respectively.

As for `CC(C)(O)Cn1cnc2ccc(Sc3cnc(N4CCC5(CC4)Cc4ncsc4[C@H]5N)cn3)c(Cl)c2c1=O` [Example 147, 6-[5-[(6S)-6-aminospiro[4,6-dihydrocyclopenta[d]thiazole-5,4′piperidin]1′-yl]pyrazin-2-yl]sulfanyl-5-chloro-3-(2-hydroxy-2-methyl-propyl)quinazolin-4-one], the IC50 is less than 3 nM on SHP2 (full length) and less than 45 nM in assay [1].

As to `N[C@H]1c2scnc2CC12CCN(c1cnc(Sc3ccc4ncn(CC5CCOCC5)c(=O)c4c3Cl)cn1)CC2` [Example 148, 6-[5-[(6R)-6-aminospiro[4,6-dihydrocyclopenta[d]thiazole-5,4′piperidin]1′-yl]-pyrazin-2-yl]sulfanyl-5-chloro-3-(tetrahydropyran-4-ylmethyl)quinazolin-4-one], the results for the IC50 (on SHP2 (full length); in assay [1]) were 3 to 100 nM and 45 to 1500 nM, respectively.

As to `N[C@@H]1c2scnc2CC12CCN(c1cnc(Sc3ccc4ncn(CC5CCOCC5)c(=O)c4c3Cl)cn1)CC2` [Example 149], the IC50 at SHP2 (full length) was less than 3 nM; in assay [1], less than 45 nM.

`COCCn1cnc2ccc(Sc3cnc(N4CCC5(CC4)Cc4scnc4[C@@H]5N)cn3)c(Cl)c2c1=O` [Example 150, 6-[5-[(4R)-4-aminospiro[4,6-dihydrocyclopenta[d]thiazole-5,4′-piperidin]-1′-yl]pyrazin-2-yl]sulfanyl-5-chloro-3-(2-methoxyethyl)quinazolin-4-one]: the IC50 at SHP2 (full length) is less than 3 nM; in assay [1], 45 to 1500 nM.

With `COCCn1cnc2ccc(Sc3cnc(N4CCC5(CC4)Cc4scnc4[C@H]5N)cn3)c(Cl)c2c1=O` [Example 151, 6-[5-[(4S)-4-aminospiro[4,6-dihydrocyclopenta[d]thiazole-5,4′-piperidin]-1′-yl]pyrazin-2-yl]sulfanyl-5-chloro-3-(2-methoxyethyl)quinazolin-4-one], the IC50 is less than 3 nM at SHP2 (full length) and less than 45 nM in assay [1].

Regarding `CC(C)(O)Cn1cnc2ccc(Sc3cnc(N4CCC5(CC4)Cc4scnc4[C@@H]5N)cn3)c(Cl)c2c1=O` [Example 152, 6-[5-[(4R)-4-aminospiro[4,6-dihydrocyclopenta[d]thiazole-5,4′-piperidin]-1′-yl]pyrazin-2-yl]sulfanyl-5-chloro-3-(2-hydroxy-2-methyl-propyl)quinazolin-4-one], the IC50 lay in the range of 3 to 100 nM at SHP2 (full length) and 45 to 1500 nM in assay [1].

Regarding `COCCn1cnc2ccc(Sc3cnc(N4CCC5(CC4)CO[C@@H](C)[C@H]5N)c(CO)n3)c(Cl)c2c1=O` [Example 153, 6-[5-[(3S,4S)-4-amino-3-methyl-2-oxa-8-azaspiro[4.5]decan-8-yl]-6-(hydroxymethyl)pyrazin-2-yl]sulfanyl-5-chloro-3-(2-methoxyethyl)quinazolin-4-one], the IC50 on SHP2 (full length) was less than 3 nM; in assay [1], less than 45 nM.

On to `COCCn1cnc2ccc(Sc3nc(C(N)=O)c(N4CCC5(CC4)CO[C@@H](C)[C@H]5N)nc3N)c(Cl)c2c1=O` [Example 154, 5-amino-3-[(3S,4S)-4-amino-3-methyl-2-oxa-8-azaspiro[4.5]decan-8-yl]-6-[5-chloro-3-(2-methoxyethyl)-4-oxo-quinazolin-6-yl]sulfanyl-pyrazine-2-carboxamide], for which the IC50 was 3 to 100 nM on SHP2 (full length) and 45 to 1500 nM in assay [1].

On to `COCCn1cnc2ccc(Sc3nc(C(C)=O)c(N4CCC5(CC4)CO[C@@H](C)[C@H]5N)nc3N)c(Cl)c2c1=O` [Example 155], for which the figures for the IC50 (on SHP2 (full length); in assay [1]) were 3 to 100 nM and more than 1500 nM, respectively.

For the molecule `COCCn1cnc2ccc(Sc3cnc(N4CCC5(CC4)CO[C@@H](C)[C@H]5N)cn3)c(F)c2c1=O` [Example 156], the 50% inhibitory concentration (IC50) at SHP2 (full length) was 3 to 100 nM; in assay [1], less than 45 nM.

Take `COCCn1cnc2ccc(Sc3cnc(N4CCC5(CC4)Cc4nc(Cl)sc4[C@@H]5N)cn3)c(Cl)c2c1=O` [Example 157, 6-[5-[(6R)-6-amino-2-chloro-spiro[4,6-dihydrocyclopenta[d]thiazole-5,4′-piperidin]-1′-yl]pyrazin-2-yl]sulfanyl-5-chloro-3-(2-methoxyethyl)quinazolin-4-one]: the values for the IC50 (at SHP2 (full length); in assay [1]) were 3 to 100 nM and 45 to 1500 nM, respectively.

With `COCCn1cnc2ccc(Sc3cnc(N4CCC5(CC4)Cc4ccc(OC)cc4[C@H]5N)cn3)c(Cl)c2c1=O` [Example 158, 6-[5-[(1S)-1-amino-6-methoxy-spiro[indane-2,4′-piperidin]-1′-yl]pyrazin-2-yl]sulfanyl-5-chloro-3-(2-methoxyethyl)quinazolin-4-one], the IC50 is less than 3 nM on SHP2 (full length) and less than 45 nM in assay [1].

Regarding `CC(C)(O)Cn1cnc2ccc(Sc3cnc(N4CCC5(CC4)Cc4ncccc4[C@@H]5N)cn3)c(Cl)c2c1=O` [Example 159, 6-[5-[(5R)-5-aminospiro[5,7-dihydrocyclopenta[b]pyridine-6,4′-piperidin]-1′-yl]pyrazin-2-yl]sulfanyl-5-chloro-3-(2-hydroxy-2-methylpropyl)quinazolin-4-one], the IC50 was less than 3 nM at SHP2 (full length) and less than 45 nM in assay [1].

As to `CC(C)(O)Cn1cnc2ccc(Sc3cnc(N4CCC5(CC4)Cc4scnc4[C@H]5N)cn3)c(Cl)c2c1=O` [Example 160, 6-[5-[(4S)-4-amino[4,6-dihydrocyclopenta[d]thiazole-5,4′-piperidin]-1′-yl]pyrazin-2-yl]sulfanyl-5-chloro-3-(2-hydroxy-2-methyl-propyl)quinazolin-4-one], the IC50 on SHP2 (full length) is less than 3 nM; in assay [1], less than 45 nM.

`COCCn1cnc2ccc(Sc3cnc(N4CCC5(CC4)Cc4nc(Cl)sc4[C@H]5N)cn3)c(Cl)c2c1=O` [Example 161, 6-[5-[(6S)-6-amino-2-chloro-spiro[4,6-dihydrocyclopenta[d]thiazole-5,4′-piperidin]-1′-yl]pyrazin-2-yl]sulfanyl-5-chloro-3-(2-methoxyethyl)quinazolin-4-one]: the concentration for half-maximal inhibition (IC50) at SHP2 (full length) was less than 3 nM; in assay [1], less than 45 nM.

With `COCCn1cnc2ccc(Sc3cnc(N4CCC5(CC4)Cc4ccc(O)cc4[C@H]5N)cn3)c(Cl)c2c1=O` [Example 163, (S)-6-((5-(1-amino-6-hydroxy-1,3-dihydrospiro(indene-2,4′-piperidin]-1′-yl)pyrazin-2-yl)thio)-5-chloro-3-(2-methoxyethyl)quinazolin-4(31-1)-one], the IC50 at SHP2 (full length) was less than 3 nM; in assay [1], less than 45 nM.

As to `CC(C)(O)Cn1cnc2ccc(Sc3ncc(N4CCC5(CC4)Cc4scnc4[C@H]5N)nc3N)c(Cl)c2c1=O` [Example 165, (S)-6-((3-amino-5-(4-amino-4,6-dihydrospiro[cyclopenta[d]thiazole-5,4′-piperidin]-1′-yl)pyrazin-2-yl)thio)-5-chloro-3-(2-hydroxy-2-methylpropyl)quinazolin-4(3H)-one], the half-inhibitory concentration (IC50) was less than 3 nM at SHP2 (full length) and less than 45 nM in assay [1].

In the case of `CC(C)(O)Cn1cnc2ccc(Sc3ncc(N4CCC5(CC4)Cc4ncsc4[C@H]5N)nc3N)c(Cl)c2c1=O` [Example 166, (S)-6-((3-amino-5-(6-amino-4,6-dihydrospiro[cyclopenta[d]thiazole-5,4′-piperidin]-1′-yl)pyrazin-2-yl)thio)-5-chloro-3-(2-hydroxy-2-methylpropyl)quinazolin-4(3H)-one], the IC50 is less than 3 nM on SHP2 (full length) and less than 45 nM in assay [1].

For `COCCn1cnc2ccc(Sc3ncc(N4CCC5(CC4)Cc4scnc4[C@H]5N)nc3N)c(Cl)c2c1=O` [Example 167, (S)-6-((3-amino-5-(4-amino-4,6-dihydrospiro[cyclopenta[d]thiazole-5,4′-piperidin]-1′-yl)pyrazin-2-yl)thio)-5-chloro-3-(2-methoxyethyl)quinazolin-4(3H)-one], the values for the concentration for half-maximal inhibition (IC50) (at SHP2 (full length); in assay [1]) were less than 3 nM and 45 to 1500 nM, respectively.

For the molecule `COCCn1cnc2ccc(Sc3cnc(N4CCC5(CC4)Cc4ncccc4[C@H]5N)c(CO)n3)c(Cl)c2c1=O` [Example 168, (S)-6-((5-(5-amino-5,7-dihydrospiro[cyclopenta[b]pyridine-6,4′-piperidin]-1′-yl)-6-(hydroxymethyl)pyrazin-2-yl)thio)-5-chloro-3-(2-methoxyethyl)quinazolin-4(3H)-one], the IC50 at SHP2 (full length) is less than 3 nM; in assay [1], less than 45 nM.
